Measurements taken from patent US20240148821A1, “PHARMACEUTICAL USE OF CYCLIC PEPTIDE COMPOUND” (CHUGAI SEIYAKU KABUSHIKI KAISHA, priority 2021, published 2024).
Numbered stars: 1 amine (or outer) side, 2 acyl side, 3 side chain; on linkers, the order of the positions; unused ones are H or OH. Bridge positions count the residues as written; N and C are the ends. Square brackets hold non-standard residues; d marks the D form. Peptide text beside a SMILES is read from it. * marks the point of attachment. X13 = O=C([C@H](CCc1ccc(OC(F)(F)F)c(Cl)c1)N[*:1])[*:2]; X21 = O=C([C@H](CCc1ccc(OC(F)(F)F)c(F)c1)N[*:1])[*:2]; X23 = N#Cc1cc(CC[C@H](N[*:1])C(=O)[*:2])ccc1C(F)(F)F; X8 = CC(C)Oc1cc(CC[C@H](N[*:1])C(=O)[*:2])cc(Cl)c1Cl; X15 = O=C([C@H](CCc1cc(Cl)c(Cl)c(Cl)c1)N[*:1])[*:2]; X11 = O=C([C@H](CCc1ccc2occc2c1)N[*:1])[*:2]; NMeGly(cPent) = CN[C@H](C(=O)O)C1CCCC1; NMeCha = CN[C@@H](CC1CCCCC1)C(=O)O; NMeChg = CN[C@H](C(=O)O)C1CCCCC1; NMeD = CN[C@@H](CC(=O)O)C(=O)O; NMeL = CN[C@@H](CC(C)C)C(=O)O; NMeA = CN[C@@H](C)C(=O)O; Piperidide = C1CCN(*)CC1; Ac5c = NC1(C(=O)O)CCCC1; Aze = O=C(O)[C@@H]1CCN1; Sar = CNCC(=O)O

Each molecule was assayed against protein-protein interaction between Kras and SOS1 (biotin-tagged human Kras loaded with GDP, His-tagged human SOS1) (Homo sapiens (Human), UniProt P01116, G12D) (assay: Protein-protein interaction inhibition between Kras and SOS1 (KrasG12D-SOS PPI) using AlphaScreen). Conditions: AlphaScreen; biotin-tagged human Kras loaded with GDP, His-tagged human SOS1; read-out: KRAS G12D-SOS PPI IC50.
Assay type: biochemical
In the case of `CC[C@H](C)[C@@H]1NC(=O)[C@H](CC(C)C)N(C)C(=O)C[C@@H](C(=O)N2CCCCC2)N(C)C(=O)[C@H](C2CCCC2)N(C)C(=O)C2(CCCC2)NC(=O)[C@@H]2CCCN2C(=O)[C@H](CCc2ccc(OC(F)(F)F)c(Cl)c2)NC(=O)CN(C)C(=O)[C@H](CC2CCCCC2)N(C)C(=O)[C@@H]2CCN2C(=O)[C@H](C)N(C)C1=O` [Compound 2057] ([NMeL]I[NMeA][Aze][NMeCha][Sar][X13]P[Ac5c][NMeGly(cPent)][NMeD]-Piperidide; lactam N-11 (inferred); C-terminus assumed), the IC50 is reported as 1.1 nM.
`CC[C@H](C)[C@@H]1NC(=O)[C@H](C)N(C)C(=O)C[C@@H](C(=O)N2CCCCC2)N(C)C(=O)[C@H](C2CCCCC2)N(C)C(=O)C2(CCCC2)NC(=O)[C@@H]2CCCN2C(=O)[C@H](CCc2cc(Cl)c(Cl)c(Cl)c2)NC(=O)CN(C)C(=O)[C@H](CC2CCCCC2)N(C)C(=O)CN(C)C(=O)CN(C)C1=O` [Compound 2059, (3S,9S,18S,21S,25S,28S,34S)-28-cyclohexyl-9-(cyclohexylmethyl)-7,10,13,16,21,22,26,29-octamethyl-18-[(1S)-1-methylpropyl]-25-(piperidine-1-carbonyl)-3-[2-(3,4,5-trichlorophenyl)ethyl]spiro[1,4,7,10,13,16,19,22,26,29,32-undecazabicyclo[32.3.0]heptatriacontane-31,1′-cyclopentane]-2,5,8,11,14,17,20,23,27,30,33-undecone] ([NMeA]I[Sar][Sar][NMeCha][Sar][X15]P[Ac5c][NMeChg][NMeD]-Piperidide; lactam N-11) gave an IC50 of 0.96 nM.
With `CC[C@H](C)[C@@H]1NC(=O)[C@H](C)N(C)C(=O)C[C@@H](C(=O)N2CCCCC2)N(C)C(=O)[C@H](C2CCCCC2)N(C)C(=O)C2(CCCC2)NC(=O)[C@@H]2CCCN2C(=O)[C@H](CCc2cc(Cl)c(Cl)c(OC(C)C)c2)NC(=O)CN(C)C(=O)[C@H](CC2CCCCC2)N(C)C(=O)CN(C)C(=O)CN(C)C1=O` [Compound 2062] ([NMeA]I[Sar][Sar][NMeCha][Sar][X8]P[Ac5c][NMeChg][NMeD]-Piperidide; lactam N-11) the IC50 was 6.9 nM.
In the case of `CC[C@H](C)[C@@H]1NC(=O)[C@H](CC(C)C)N(C)C(=O)C[C@@H](C(=O)N2CCCCC2)N(C)C(=O)[C@H](C2CCCC2)N(C)C(=O)C2(CCCC2)NC(=O)[C@@H]2CCCN2C(=O)[C@H](CCc2ccc3occc3c2)NC(=O)CN(C)C(=O)[C@H](CC2CCCCC2)N(C)C(=O)[C@@H]2CCN2C(=O)[C@H](C)N(C)C1=O` [Compound 2063] ([NMeL]I[NMeA][Aze][NMeCha][Sar][X11]P[Ac5c][NMeGly(cPent)][NMeD]-Piperidide; lactam N-11 (inferred); C-terminus assumed), the IC50 is reported as 8.8 nM.
`CC[C@H](C)[C@@H]1NC(=O)[C@H](CC(C)C)N(C)C(=O)C[C@@H](C(=O)N2CCCCC2)N(C)C(=O)[C@H](C2CCCC2)N(C)C(=O)C2(CCCC2)NC(=O)[C@@H]2CCCN2C(=O)[C@H](CCc2ccc(OC(F)(F)F)c(F)c2)NC(=O)CN(C)C(=O)[C@H](CC2CCCCC2)N(C)C(=O)[C@@H]2CCN2C(=O)[C@H](C)N(C)C1=O` [Compound 2067] ([NMeL]I[NMeA][Aze][NMeCha][Sar][X21]P[Ac5c][NMeGly(cPent)][NMeD]-Piperidide; lactam N-11 (inferred); C-terminus assumed) showed an IC50 of 0.84 nM.
Work on `CC[C@H](C)[C@@H]1NC(=O)[C@H](CC(C)C)N(C)C(=O)C[C@@H](C(=O)N2CCCCC2)N(C)C(=O)[C@H](C2CCCC2)N(C)C(=O)C2(CCCC2)NC(=O)[C@@H]2CCCN2C(=O)[C@H](CCc2ccc(C(F)(F)F)c(C#N)c2)NC(=O)CN(C)C(=O)[C@H](CC2CCCCC2)N(C)C(=O)[C@@H]2CCN2C(=O)[C@H](C)N(C)C1=O` [Compound 2072] ([NMeL]I[NMeA][Aze][NMeCha][Sar][X23]P[Ac5c][NMeGly(cPent)][NMeD]-Piperidide; lactam N-11 (inferred); C-terminus assumed) yielded an IC50 of 0.42 nM.
